Source: patent publication US20220281848A1, “PYRAZOLE-SUBSTITUTED PYRROLIDINONES AS HERBICIDES” (FMC Corporation, priority 2019, published 2022)

What was measured:
[1] = tested on: wheat; experiment: Test D post-emergence, wheat seed treated with a herbicide safener; format: in vivo; conditions: "Cereals" Postemergent
Protocol: (§1) A formulation containing 50 g/L of the test chemical was prepared by dissolving the active ingredient in a mixture of organic solvents and emulsifier, details of which are provided in the table. This formulation was then mixed with a small, variable amount of acetone to aid dissolution, before addition of a 0.2% v/v aqueous solution of an adjuvant, as the aqueous diluent, to form an aqueous spray solution which contains a predetermined concentration of the active ingredient.
(§2) This aqueous spray solution was then sprayed onto plants including maize and wheat that had been seed treated with a herbicide safener, after one day's cultivation (for pre-emergence) or after about 12 days' cultivation (for post-emergence). The plants were grown from seeds sown in standard soil, placed in a glasshouse under controlled conditions (at 24/18° C. or 20/16° C., day/night; 16 h light; 65% humidity). After spray application the plants were then grown in a glasshouse under the same conditions and watered twice daily. After 15 d for post-emergence and 20 DAA for pre-emergence the test was evaluated (100=total damage to plant; 0=no damage to plant).

[2] = tested on: plants; experiment: Test D post-emergence, other plants of Tables D2 and D4; format: in vivo; conditions: "Cereals" Postemergent, evaluated after 15 d
Protocol: as §1, §2

CN1CC(c2cc(C(F)(F)F)n(C)n2)C(C(=O)Nc2cccc(F)c2F)C1=O (racemic) [Compound 3]
30: AVEFA damage rating (100=total damage to plant; 0=no damage to plant) ([2]; Rates 500) | HORVW damage rating (100=total damage to plant; 0=no damage to plant) ([2]; Rates 500)
20: ALOMY damage rating (100=total damage to plant; 0=no damage to plant) ([2]; Rates 500) | POAAN damage rating (100=total damage to plant; 0=no damage to plant) ([2]; Rates 250)
10: BEAVA damage rating (100=total damage to plant; 0=no damage to plant) ([2]; Rates 250) | BEAVA damage rating (100=total damage to plant; 0=no damage to plant) ([2]; Rates 500) | BRSNN damage rating (100=total damage to plant; 0=no damage to plant) ([2]; Rates 130) | BRSNN damage rating (100=total damage to plant; 0=no damage to plant) ([2]; Rates 250) | SINAR damage rating (100=total damage to plant; 0=no damage to plant) ([2]; Rates 500) | STEME damage rating (100=total damage to plant; 0=no damage to plant) ([2]; Rates 500)
0: TRZAW damage rating (100=total damage to plant; 0=no damage to plant) ([1]; Rates 130, evaluated after 15 d) | TRZAW damage rating (100=total damage to plant; 0=no damage to plant) ([1]; Rates 250, evaluated after 15 d) | ALOMY damage rating (100=total damage to plant; 0=no damage to plant) ([2]; Rates 130) | ALOMY damage rating (100=total damage to plant; 0=no damage to plant) ([2]; Rates 250) | AVEFA damage rating (100=total damage to plant; 0=no damage to plant) ([2]; Rates 130) | AVEFA damage rating (100=total damage to plant; 0=no damage to plant) ([2]; Rates 250) | BEAVA damage rating (100=total damage to plant; 0=no damage to plant) ([2]; Rates 130) | BROTE damage rating (100=total damage to plant; 0=no damage to plant) ([2]; Rates 130) | BROTE damage rating (100=total damage to plant; 0=no damage to plant) ([2]; Rates 250) | BROTE damage rating (100=total damage to plant; 0=no damage to plant) ([2]; Rates 500) | BRSNN damage rating (100=total damage to plant; 0=no damage to plant) ([2]; Rates 500) | CHEAL damage rating (100=total damage to plant; 0=no damage to plant) ([2]; Rates 130) | CHEAL damage rating (100=total damage to plant; 0=no damage to plant) ([2]; Rates 250) | CHEAL damage rating (100=total damage to plant; 0=no damage to plant) ([2]; Rates 500) | GALAP damage rating (100=total damage to plant; 0=no damage to plant) ([2]; Rates 130) | GALAP damage rating (100=total damage to plant; 0=no damage to plant) ([2]; Rates 250) | GALAP damage rating (100=total damage to plant; 0=no damage to plant) ([2]; Rates 500) | HORVW damage rating (100=total damage to plant; 0=no damage to plant) ([2]; Rates 130) | HORVW damage rating (100=total damage to plant; 0=no damage to plant) ([2]; Rates 250) | KCHSC damage rating (100=total damage to plant; 0=no damage to plant) ([2]; Rates 130) | KCHSC damage rating (100=total damage to plant; 0=no damage to plant) ([2]; Rates 250) | KCHSC damage rating (100=total damage to plant; 0=no damage to plant) ([2]; Rates 500) | LOLPE damage rating (100=total damage to plant; 0=no damage to plant) ([2]; Rates 130) | LOLPE damage rating (100=total damage to plant; 0=no damage to plant) ([2]; Rates 250) | LOLPE damage rating (100=total damage to plant; 0=no damage to plant) ([2]; Rates 500) | POAAN damage rating (100=total damage to plant; 0=no damage to plant) ([2]; Rates 130) | POLCO damage rating (100=total damage to plant; 0=no damage to plant) ([2]; Rates 130) | POLCO damage rating (100=total damage to plant; 0=no damage to plant) ([2]; Rates 250) | POLCO damage rating (100=total damage to plant; 0=no damage to plant) ([2]; Rates 500) | SINAR damage rating (100=total damage to plant; 0=no damage to plant) ([2]; Rates 130) | SINAR damage rating (100=total damage to plant; 0=no damage to plant) ([2]; Rates 250) | STEME damage rating (100=total damage to plant; 0=no damage to plant) ([2]; Rates 130) | STEME damage rating (100=total damage to plant; 0=no damage to plant) ([2]; Rates 250) | VERPE damage rating (100=total damage to plant; 0=no damage to plant) ([2]; Rates 130) | VERPE damage rating (100=total damage to plant; 0=no damage to plant) ([2]; Rates 250)
60: VERPE damage rating (100=total damage to plant; 0=no damage to plant) ([2]; Rates 500)
50: TRZAW damage rating (100=total damage to plant; 0=no damage to plant) ([1]; Rates 500, evaluated after 15 d) | POAAN damage rating (100=total damage to plant; 0=no damage to plant) ([2]; Rates 500)
